The values below come from patent publication US20010044445A1, “AZOLE INHIBITORS OF CYTOKINE PRODUCTION” (priority 1999, published 2001).

Molecules are shown by their SMILES. Read-outs that look alike come from different tables or passages of the source.

Data set [1] concerns Human peripheral blood mononuclear cells. The experiment in a line: Human Concanavalin-A Proliferation Assay (Con HU Assay). The class given is cell-based. Conditions: concanavalin-A stimulated human PBMC; for inhibition at 10 µM: concentration 10 μm (in parentheses in the cell); for IC50: tritiated thymidine. The procedure, abridged:
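Histopaque-isolated human PBMC (50,000/well) were pre-incubated 15 min with compounds, then stimulated with concanavalin-A at 2.5 μg/ml final for 3 days at 37 °C, 5% CO2. Proliferation measured by 6 h pulse with 0.5 μCi/well [3H]thymidine and beta counting.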

The test system of data set [2] is IL-4. The experiment in a line: Measurement of IL-4 Levels in Human T Cells (IL-4 Assay). The class given is cell-based. To be noted: Human T cells (HUT 78), phorbol 12-myristate 13-acetate and anti-CD3, 32 hours, ELISA, read-out: IL-4 Inhibition IC50. The method, then: (§1) Measurement of IL-5 and IL-4 Levels in Human T Cells (IL-4 and IL-5 Assays) Human T cells (HUT 78) were cultured to 1×10^6/mL in RPMI 1640 medium containing 10% fetal calf serum, 100 U/mL penicillin and 100 μg/mL streptomycin. Cultures were then centrifuged, to pellet the cells, and cells resuspended in fresh medium to the same density. 0.2 mL samples of cells were incubated in 96-well plates with 8 μL of various concentrations of compound freshly diluted with the above medium from 100 mM solvent stocks (ethanol or DMSO). Immediately after addition of compound, cells were stimulated by addition of 2 ng/mL phorbol 12-myristate 13-acetate (1 μL of freshly prepared solution of stock (in DMSO) diluted with the above medium added to cells) and 750 μg/mL anti-CD3 (pre-coated at 4° C. overnight). Cell cultures were incubated at 37 OC for 32 hours, then cells pelleted by centrifugation and the supernatants harvested for ELISA. IL-4 and IL-5 ELISA's were performed according to standard procedures. Inhibition was calculated relative to cytokine levels produced from control stimulated cells not treated with compound.
In general terms: An ELISA detects its analyte on a solid surface through an enzyme-linked reagent.

Data set [3] deals with IL-5. The experiment in a line: Measurement of IL-5 Levels in Human T Cells (IL-5 Assay). Conditions: Human T cells (HUT 78), phorbol 12-myristate 13-acetate and anti-CD3, 32 hours, ELISA, read-out: IL-5 Inhibition IC50. The class given is cell-based. On the procedure:
as §1

Data set [4] has as its system IL-2. The experiment in a line: CD3 and CD28 Activation of Peripheral Blood T Cells and Determination of Secreted IL-2 Levels (C28 HU Assay). The class given is cell-based, Human. Conditions: PBMC stimulated with anti-CD3 and anti CD28 mAbs, 24 hour; for IC50: IL-2 secretion; for inhibition at 100 µM: concentration 100 μM (in c2); for inhibition at 100 µM / inhibition at 1 µM: read-out: % Inhibition of IL-2 secretion (At concentrations of 1, 10, or 100 μM); for inhibition at 1 µM: concentration 1 μM (in c2). The method, then:
Human peripheral blood mononuclear cells were cultured in RPMI 1640 medium supplemented with 10 μg/ml gentamicin, 50 μM 2-mercaptoethanol, 1X MEM non-essential amino acids (Sigma Chemical Co., St. Louis, Mo.), 100 U/ml sodium penicillin G, 100 μg/ml streptomycin sulfate, 2 mM L-glutamine, 1 mM sodium pyruvate (Life Technologies, Grand Island, N.Y.) and 10% fetal bovine serum (Hyclone, Logan, Utah) at 37° C. with 5% CO2.
Human peripheral blood mononuclear cells (PBMC) were isolated by Ficoll-Hypaque seperation. PBMCs were stimulated with a combination of immobilized anti-CD3 and soluble anti CD28 mAbs as described in Faltynek, et al. J. Enzyme Inhibition 1995, 9, 111-122, hereby incorporated by reference. Following a 24 hour incubation, cell supernatants were harvested and IL-2 levels were determined. 100 μl of 5 μg/ml monoclonal murine anti-human IL-2 antibody (Biosource International) in D-PBS was added to 96 well Maxisorb plates (Nunc) and incubated at 4° C. overnight. Plates were washed 4 times with D-PBS containing 0.05% Tween 20 (wash buffer) and blocked with D-PBS containing 1% BSA and 10 mM NaN3 (Diluent/Blocking buffer) for 1-3 hours at room temperature or overnight at 4° C. Plates were washed and recombinant human IL-2 diluted (at 10,000, 5,000, 2,500, 1,250, 625, 312.5, 156.25, 78, 39, 20 pg/ml) in diluent/blocking buffer containing a matched percentage of complete RPMI 1640 medium as the unknown samples. Tissue culture supernatant at various dilutions were added in triplicate at 100 μl/well. Plates were incubated for 2 hours at room temperature and washed 4 times with wash buffer. 100 pl of rabbit anti-human IL-2 (10 μg/ml, Genzyme) was added and incubated for 1 hour at room temperature. The incubation was followed by 4 washes and subsequent addition of 100 pl of 1:2000 dilution of alkaline phosphatase-conjugated goat anti-rabbit F(ab′)2 (Biosource International). After 1 hour the plates were washed 4 times and 100 μl of pNPP (Southern Biotech or Sigma) at 1 mg/ml in buffer was added. Color development was allowed to proceed at room temperature for 20 minutes before addition of 50 μl of 2 N NaOH. Absorbance at 405 nm was determined using a plate reader (Molecular Devices). IL-2 concentrations were calcualted using SoftMax (Molecular Devices) based on the IL-2 standard solutions.

Where [5] appears, read: Homo sapiens, PBMC, 72 h, 3 days, read-out: % Inhibition of proliferation (at concentrations of 1,10, or 100 μm).
The mark [6] stands for this setting: concentration 100 μm (in parentheses in the cell), 3 days.

As for `O=C(Nc1ccc(-n2nc(C(F)(F)F)cc2C(F)(F)F)cc1)c1cccc(F)c1F` [Example 209, N-[4-[3,5-bis(trifluoromethyl)-1H-pyrazol-1-yl]phenyl]-2,3-difluorobenzamide], the melting point (commonly the temperature of the solid-liquid transition) was in the range of 147 to 149 °C. Moreover, the inhibition at 10 µM in data set [1] (setting [5]) worked out at 99%. Further, the IC50 (as a rule, the concentration needed to halve the response being measured) in data set [1] (Homo sapiens, PBMC) was determined as 33 nM. In data set [2] (HuT78), the IC50 is 5 nM. Besides, in data set [3] (HuT78), the IC50 turned out to be 38 nM.
As for `O=C(Nc1ccc(Cl)cc1)c1ccc(-n2nc(C(F)(F)F)cc2C(F)(F)F)cc1` [Example 24, N-4-[3,5-bis(trifluoromethyl)-1H-pyrazol-1-yl]-N-(4-chlorophenyl)benzamide], the IC50 in data set [1] is 301 nM; in data set [4], 380 nM; in data set [2], 150 nM; in data set [3] it was 150 nM. In addition, the “% Inhibition of proliferation (at concentrations of 1,10, or 100 μm)” value in data set [1] (setting [6]) was 98(100) %.
In turn, `Cc1noc(C)c1C(=O)Nc1ccc(-n2nc(C(F)(F)F)cc2C(F)(F)F)cc1` [Example 266, N-[4-[3,5-bis(trifluoromethyl)-1H-pyrazol-1-yl]phenyl]-3,5-dimethyl-4-isoxazolecarboxamide] returned a melting point of 179 to 180 °C. Also, the inhibition at 100 µM in data set [1] (Homo sapiens, PBMC, 72 h, concentration 100 μm (in parentheses in the cell), 3 days, read-out: % Inhibition of proliferation (at concentrations of 1,10, or 100 μm)) amounted to 100%. This molecule also returned a half-inhibitory concentration (IC50) in data set [1] (Homo sapiens, PBMC) of 322 nM. In addition, in data set [4] (Homo sapiens), the IC50 was found to be 314 nM and the inhibition at 100 µM came to 88%. The IC50 in data set [2] (HuT78) amounted to 110 nM. The IC50 in data set [3] (HuT78) worked out at 150 nM.
Turning to `CCCCCCCNC(=O)Nc1ccc(-n2nc(C(F)(F)F)cc2C(F)(F)F)cc1` [Example 47, N-[4-[3,5-bis(trifluoromethyl)-1H-pyrazol-1-yl]phenyl]-N′-heptylurea], the melting point lay in the range of 129 to 130 °C. In addition, the inhibition at 1 µM in data set [4] (Homo sapiens) is 2%.
The molecule `O=C(Nc1ccc(-n2nc(C(F)(F)F)cc2C(F)(F)F)cc1)c1cccs1` [Example 131, N-[4-[3,5-bis(trifluoromethyl)-1H-pyrazol-1-yl]phenyl]-2-thiophenecarboxamide] showed a melting point of more than 230 °C. Further, the inhibition at 1 µM in data set [4] (Homo sapiens) was determined as 32%.
In turn, `O=C(CCC(=O)c1ccc(F)cc1)Nc1ccc(-n2nc(C(F)(F)F)cc2C(F)(F)F)cc1` [Example 152, N-[4-[3,5-bis(trifluoromethyl)-1H-pyrazol-1-yl]phenyl]-4-fluoro-γ-oxobenzenebutanamide] gave a melting point of 156 to 158 °C. In addition, the inhibition at 1 µM in data set [4] (Homo sapiens) was 3%.
For `O=C(Nc1ccc(-n2nc(C(F)(F)F)cc2C(F)(F)F)cc1)C1=CCCCC1` [Example 6, N-[4-[3,5-bis(trifluoromethyl)-1H-pyrazol-1-yl]phenyl]-1-cyclohexene-1-carboxamide], the melting point fell in the range of 146 to 148 °C. Besides, the inhibition at 10 µM in data set [1] (setting [5]) was 100%. In addition, the IC50 in data set [1] (Homo sapiens, PBMC) amounted to 98 nM. In data set [2] (HuT78), the IC50 came out at 8 nM. Further, in data set [3] (HuT78), the IC50 stood at 50 nM.
For the molecule `Cc1c(Cl)cccc1NC(=O)Nc1ccc(-n2nc(C(F)(F)F)cc2C(F)(F)F)cc1` [Example 38, N-[4-[3,5-bis(trifluoromethyl)-1H-pyrazol-1-yl]phenyl]-N′-(3-chloro-2-methylphenyl)urea], the melting point lay within 193 to 196 °C. The inhibition at 1 µM in data set [4] (Homo sapiens) was determined as 16%.
The like results for `Cc1ccnn1-c1ccc(NC(=O)c2ccc(Cl)cc2)cc1` [Example 284, 4-Chloro-N-[4-(5-methyl-1H-pyrazol-1-yl)phenyl]benzamide] were, in that order, 189 to 191 °C and 17%.
As to `Cc1nnsc1C(=O)Nc1ccc(-n2nc(C(F)(F)F)cc2C(F)(F)F)cc1` [Example 250, N-[4-[3,5-bis(trifluoromethyl)-1H-pyrazol-1-yl]phenyl]-4-methyl-1,2,3-thiadizole-5-carboxamide], the 50% inhibitory concentration (IC50) in data set [1] came out at 173 nM; in data set [4], 102 nM; in data set [2], 50 nM; in data set [3] it was 80 nM. The “% Inhibition of proliferation (at concentrations of 1,10, or 100 μm)” value in data set [1] (setting [6]) is 100(100) %.
In the case of `O=C(Nc1ccc(-n2nc(C(F)(F)F)cc2C(F)(F)F)cc1)c1ccco1` [Example 113, N-[4-[3,5-bis(trifluoromethyl)-1H-pyrazol-1-yl]phenyl]-2-furancarboxamide], the melting point is 179 to 182 °C. For the same molecule, the inhibition at 1 µM in data set [4] (Homo sapiens) was determined as 19%.
In the same order, the values of `CCCCC(CC)C(=O)Nc1ccc(-n2nc(C(F)(F)F)cc2C(F)(F)F)cc1` (stereo not shown) [Example 72, N-[4-[3,5-bis(trifluoromethyl)-1H-pyrazol-1-yl]phenyl]-2-ethylhexanamide] are 127 to 128 °C and 11%.
With `O=C(Nc1ccc(-n2nc(C(F)(F)F)cc2C(F)(F)F)cc1)c1ccncc1F` [Example 264, N-[4-[3,5-bis(trifluoromethyl)-1H-pyrazol-1-yl]phenyl]-3-fluoro-4-pyridinecarboxamide], the inhibition at 10 µM in data set [1] (setting [5]) was 100%. Moreover, the IC50 amounted to 42 nM in data set [1] (Homo sapiens, PBMC); 4.8 nM in data set [2] (HuT78); 22 nM in data set [3] (HuT78).
On to `CC(C)(C)OC(=O)NCCCCCCC(=O)Nc1ccc(-n2nc(C(F)(F)F)cc2C(F)(F)F)cc1` [Example 64, 1,1-dimethylethyl [7-[[4-[3,5-bis(trifluoromethyl)-1H-pyrazol-1-yl]phenyl]amino]-7-oxoheptyl]carbamate], for which the melting point was in the range of 86 to 88 °C. Besides, in data set [4] (Homo sapiens), the IC50 turned out to be 22300 nM and the inhibition at 100 µM was 86%.
Consider `C=CC[C@@H]1/C=C(\C)C[C@H](C)C[C@H](OC)[C@H]2O[C@@](O)(C(=O)C(=O)N3CCCC[C@H]3C(=O)O[C@H](/C(C)=C/[C@@H]3CC[C@@H](O)[C@H](OC)C3)[C@H](C)[C@@H](O)CC1=O)[C@H](C)C[C@@H]2OC` [FK-506, tacrolimus, reference compound], for which the IC50 in data set [2] (HuT78) came to 0.7 nM; in data set [3] (HuT78) it was 0.5 nM.
On to `Cc1noc(C)c1C(=O)Nc1ccc(-n2nccc2C)cc1` [Example 286, 3,5-dimethyl-N-[4-(5-methyl-1H-pyrazol-1-yl)phenyl]-4-isoxazolecarboxamide], for which the melting point lay in the range of 151 to 152 °C. Also, the inhibition at 1 µM in data set [4] (Homo sapiens) came out at 2%.
